Experimental data taken from the METLIN SMRT retention time set (Domingo-Almenara et al. 2019).

Experiment: gradient 5% acetonitrile 3 min, to 50% in 2 min, to 85% in 15 min, held 3 min, 100 µL/min
Conditions: column: Zorbax Extend-C18 2.1 x 50 mm; eluents: water / acetonitrile, 0.1% formic acid
How it was run: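 Over 3 months, pure standards in mixtures of ~100 molecules were run by HPLC coupled to a quadrupole time-of-flight mass spectrometer in positive and negative ionization mode. The column was a Zorbax Extend-C18 (2.1 × 50 mm, 1.8 μm) at 100 μL/min, eluted with water and acetonitrile each holding 0.1% formic acid, with 40 μL dead and 900 μL dwell volumes. Retention time was determined from adduct peaks chosen by software and checked manually.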

RP-LC retention time [s]	SMILES
804	COC(=O)c1ncn2c1C(=O)N(Cc1ccccc1Cl)C(C)(C(=O)NC1CCCCC1)C2 (stereo unspecified)
1030	NC(=O)[C@@H](CCC(F)(F)F)N(Cc1ccc(-c2ncon2)cc1F)S(=O)(=O)c1ccc(Cl)cc1
806	O=C(Cc1nnc(-c2ccc3ncccc3c2)o1)Nc1ccc(OC(F)(F)F)cc1
904	COC(=O)N1CCN(c2ccc(-c3noc(C(F)(F)F)n3)cn2)CC1
1060	COc1cccc(NC(=O)CSc2cc(N3CCN(c4ccccc4F)CC3)ncn2)c1
957	CC1(C)CC(=O)c2cn(-c3ccc(F)cc3)c(=O)c(C(=O)NC3CCCC3)c2C1
684	Cc1nc(C)c(C(=O)N2CCC(N3C(=O)C4(CCCC4)C3c3scnc3C)CC2)s1 (stereo unspecified)
873	CCc1ccc(NC(=O)C2CC(=O)N(CCc3c[nH]c4ccc(F)cc34)C2)cc1 (stereo unspecified)
619	Cc1cc2n(n1)CCC(=O)N2CCCC(=O)NCc1ccco1
816	COC(=O)c1ccccc1Nc1c(-c2ccccn2)nc2cnccn12
666	Cc1nc2c(c(=O)n1CC(=O)NCCC1=CCCCC1)CCN(Cc1ccccc1)C2
843	COc1ccccc1CNC(=O)C1CCCN1S(=O)(=O)c1ccc2c(c1)C(C)(C)C(=O)N2C (stereo unspecified)
660	COc1ccc(NC(=O)N2C[C@@H](F)C[C@H]2C(=O)N2CCCCC2)cc1F
955	CCOC(=O)c1noc2ncnc(N3CCN(c4ccc(OC)cc4)CC3)c12
837	COc1ccc(CCc2nc3nccc(-c4ccccn4)n3n2)cc1
982	Cc1ccc(-c2nc3cnc(Br)cn3c2Nc2ccc3c(c2)OCO3)cc1
840	CCCn1cc(S(=O)(=O)Nc2cccc(OC)c2)c2cccnc21
752	O=C(Nc1nnc(C2CC(=O)N(c3ccc(Cl)cc3)C2)o1)c1ccccc1 (stereo unspecified)
845	CCc1ccccc1NC(=O)CN1C(=O)CCCc2cc(S(=O)(=O)N3CCCC3)ccc21
775	COc1ccccc1NC(=O)N1CCC2(CC1)NC(=O)c1ccc(Cl)cc1N2
808	Cc1c(O)ccc2c1oc(=O)c1ccccc12

RP-LC retention time [s]	SMILES
606	CN1C(=O)c2cccnc2Sc2cc(NC(=O)c3ccncc3)ccc21
644	O=c1n(Cc2ccccc2)nc2ccc(S(=O)(=O)N3CCc4ccccc4C3)cn12
683	CC(C)OCCCNC(=O)C1CCCN(c2ccc(-c3ccccc3)nn2)C1 (stereo unspecified)
573	COC(=O)c1ccc(NC(=O)C(=O)NCC2CCN(Cc3ccco3)CC2)cc1
995	COc1ccc(-c2ccc(=O)n(Cc3nc(-c4ccc(F)cc4)no3)n2)cc1
652	CCC(CC)NC(=O)C1CCCCC(=O)N1 (stereo unspecified)
775	COc1ccccc1CNC1=NCCNC12CCN(S(=O)(=O)c1cc(C)ccc1C)CC2
858	Cc1noc([C@@H]2CC(F)(F)CN2S(=O)(=O)c2ccccc2)n1
691	O=C(Cn1nc2c(N3CCCCCC3)nccn2c1=O)NCc1ccc(F)cc1
837	CCn1c(=O)c2cc(C(=O)Nc3ccc(OC)c(OC)c3)nn2c2ccccc21
880	CCn1nnc2c(N3CCN(S(=O)(=O)c4cccc(Cl)c4)CC3)ncnc21
602	Cc1ccc(C)c(N2CCN(c3ccc(-c4nc(-c5cccc(F)c5)no4)cn3)CC2)c1
986	Cc1nc2c(ccc3nc(NC(=O)c4ccc(Cl)s4)sc32)s1
1110	COC(=O)c1ccc2c(=O)n(CCc3ccccc3)c(N3CCSC3)nc2c1
608	CCc1ccccc1NC(=O)Cn1ncc2c(N3CCN(c4ccccn4)CC3)ncnc21
817	COCCC(=O)N1CCCN(C2=NS(=O)(=O)C(c3ccc(C(C)C)cc3)=C2C)CC1
804	CCS(=O)(=O)Nc1ccc(OCc2nnc(-c3ccccc3)o2)cc1
744	O=S(=O)(Nc1ccc(Cn2cncn2)cc1)c1ccc(Cl)cc1
710	O=C(c1ccoc1)N1CCCC(c2nc(-c3ccc(F)cc3)n[nH]2)C1 (stereo unspecified)
1070	O=C(Cn1c(=O)sc2ccccc21)Nc1nc(-c2ccc(Br)cc2)cs1
605	O=C(c1c(-c2ccccc2)nnc2ccccc12)N1CCN(c2ccccn2)CC1

RP-LC retention time [s]	SMILES
732	CCOC(=O)c1c(C)oc2nc(C)nc(NCCN3CCN(c4ccc(OC)cc4)CC3)c12
708	Cc1ccn2cc(C(=O)NCc3ccccc3C)nc2c1
854	CCOC(=O)c1cccc(Nc2ncccc2S(N)(=O)=O)c1
998	Cc1ccc2c(c1)N(S(C)(=O)=O)CCC(C(=O)Nc1ccc(F)c(Cl)c1)O2 (stereo unspecified)
1160	O=C(Cn1nc(N2CCCCCC2)c2ccccc2c1=O)Nc1ccc(Cl)cc1
893	Cc1ccsc1C(=O)Nc1ccc(N2CCN(c3ccccc3)C2=O)nc1
894	CCOc1ccccc1CNc1nccc(-n2nc(C)cc2C)n1
661	CS(=O)(=O)c1ccc(NC(=O)C2CN(C(=O)c3ccc(F)c(F)c3)C2)cc1
594	O=C(O)c1cc(NS(=O)(=O)c2cccc(F)c2)ccc1N1CCCC(CN2CCCC2)C1 (stereo unspecified)
794	O=C(NC1CCCCCC1)C1CCN(C(=O)c2ncn3c2COC(c2ccccc2)C3)CC1 (stereo unspecified)
940	O=C(Cn1cccc(-c2nc(-c3ccccc3)no2)c1=O)Nc1cccc(Br)c1
666	O=C1NC(C(=O)Nc2ccc(F)cc2)Cn2cccc21 (stereo unspecified)
1060	COc1cccc(Nc2n[nH]nc2C(=O)Nc2ccccc2Br)c1
911	Cc1noc(C)c1-c1ccc(S(=O)(=O)NC2CCCC2)cc1
774	COc1ccc(C2c3c(oc4ccc(Br)cc4c3=O)C(=O)N2C)cc1OC (stereo unspecified)
854	COc1cc(OC)c(NC(=O)NC2CCN(c3ccc(F)cc3)C2=O)cc1Cl (stereo unspecified)
851	COc1ccc(S(=O)(=O)N2CCN(c3cc(C)nc(NC4CCCCC4)n3)CC2)cc1Cl
1080	Cc1ccccc1NC(=O)C(=O)Nc1ccccc1C
599	CC(C)n1c(-c2cccc(C(=O)NCCN3CCCCC3)c2)nc2cccnc21
659	COc1cc(OC)c(NC(=O)COc2cc(C)nc(N3CCCCCC3)n2)cc1Cl
620	CC(C)CC(=O)Nc1ccc2c(c1)nc(CN1CCN(C(=O)c3ccco3)CC1)n2C

SMILES	RP-LC retention time [s]
O=C(CCCN1CCC2(CC1)C(=O)NCN2c1ccccc1)c1ccc(F)cc1	725
COc1ccc2c(c1)C1(CCN(C(=O)NC(C)C)C1)C(=O)N2C (stereo unspecified)	681
O=C(Nc1ccc(F)c(Cl)c1)c1c(O)c2cccnc2n(Cc2ccccc2)c1=O	1230
